Key:
[1] = tested on: oxLDL-induced Il1b and Mmp9 expression in BMDMs; test: Real-time PCR of oxLDL-induced pro-inflammatory genes in BMDMs; type: cell-based, mouse; conditions: PPARγ antagonist or siRNA given with NO2—OA
Experimental: FIG. 3. NO2—OA prevents oxLDL-induced NFκB activation and pro-inflammatory cytokine production. Primary BMDMs were pretreated with vehicle, OA (2.5 μM) or NO2—OA (2.5 μM) for 1 h, followed by treatment of oxLDL (50 to 100 μg/ml) for the indicated times. (A, B) Nuclear (A) and cytoplasmic protein (B) fractions were isolated 1 h after oxLDL treatment and subjected to western blot with antibodies against p65, lamin a/c (nuclear marker) and GAPDH (cytosolic marker). Representative western blot images of three independent experiments are shown. (C) Quantification of the p65 nuclear to cytoplasmic ratio by image studio (normalized by the internal control, n=3). (D-F) Following 8 h of oxLDL treatment, levels of IL6, MCP1 and TNFα in the cell medium were measured by ELISA (n=4). (G) Real-time PCR quantification of gene expression levels of IL1b and Mmp9 in total mRNA extracted from the BMDMs. (C) Ordinary one-way ANOVA followed by Tukey's test was performed. As of (D-F), the basal level contains several non-detectable values, so ordinary one-way ANOVA followed by correction of FDR were performed for the oxLDL-treated groups only. Ordinary one-way ANOVA followed by Tukey's test was performed for (G). Data presented as mean±SEM. A p<0.05 for both the main test and post hoc test was considered statistically significant.
Mice suprarenal aortas were collected after the measurement of their diameter. Human aortic aneurysm samples were obtained from the Department of Cardiac Surgery at the University of Michigan. Samples from humans and mice were snap-frozen in liquid nitrogen for later processing. RNA from tissue was extracted using TRIzol (#15596018, Invitrogen). RNA from cells was isolated with the RNeasy Mini Kit (#74106, QIAGEN). SuperScript™ III First-Strand Synthesis System (#18080051, Invitrogen) was used to reverse-transcribe mRNA into cDNA. Gene expression was quantified in triplicates by quantitative real-time PCR (qPCR) using IQ SYBR Green Supermix (#1708882, Bio-Rad) with the indicated gene primers.

[2] = tested on: AngII/PCSK9-induced AAA mouse model; test: Ang II plus hypercholesterolemia (AngII/PCSK9) induced AAA mouse model; type: in vivo
Experimental: FIG. 1. Characterization of the protective effect of NO2—OA (10-nitro-octadec-9-enoic acid) in the Ang II plus hypercholesterolemia-induced AAA mouse model. (A) Schematic illustration of the in vivo experimental design. Ten week old male C57BL/6 mice were IP injected with AAV carrying PCSK9 gain-of-function (D377Y) mutation and fed a western diet. After two weeks, each mouse was implanted with a pump delivering AngII at a rate of 1,500 ng/kg/min plus an additional pump containing either PEG-400 (vehicle), OA or NO2—OA with a delivery rate of 5 mg/kg/day (n=25 to 30 per group) and carried to the endpoint for another four weeks. Mice with ruptured aorta within the first week or with total plasma cholesterol less than 250 mg/dl were excluded from the study. (B) Representative morphological differences of the abdominal aorta. (C) AAA incidence calculated by using 1.2 mm as the cutoff diameter indicated by the dotted line in (D). (D) Average maximal diameter of the suprarenal aorta region. (E) Representative H&E and VVG staining of the paraffin-embedded suprarenal aortic cross-sections (5 μm). (F) Grade of elastic fiber degradation in the aorta (1 to 4). A 2×3 Fisher's exact test followed by posthoc test was performed for (C). For (D) and (F), the Kruskal-Wallis test followed by Dunn's multiple comparisons was performed. Continuous data are presented as mean±SEM. Scale bar=20 μm for (E). A p<0.05 for both the main test and post hoc test was considered statistically significant.
Ten weeks old male C57BL/6J mice were purchased from The Jackson Laboratory. The murine AAA model induced by AngII/PCSK9 gain-of-function mutation is well-established. After acclimation for 1 week, mice were fed a western diet (TD.88137, Envigo) and intraperitoneally injected with 2×1011 genomic copies of AAV-PCSK9.D377Y (AAV serotype 8, Penn Vector Core). Two weeks later, each mouse was subcutaneously implanted with two osmotic pumps (Model #2004, Alzet). One was loaded with AngII (#H-1706, Bachem), releasing at a rate of 1,500ng/kg/min, while the other one was loaded with PEG-400, OA or NO2—OA at a delivery rate of 5 mg/kg/day for OA or NO2—OA. After 4-weeks infusion, mice were euthanized and the maximal outer diameter of the suprarenal aorta was assessed with a digital caliper by a third person blinded to the treatment. Suprarenal aortas with a maximal diameter ≥50% larger than standard size (≥1.2 mm) were considered as abdominal aortic aneurysms. Mice dead within the first week of pump implantation or with a serum total cholesterol level less than 250 mg/dL were excluded from the study. All animal procedures were performed following the protocols approved by the Institutional Animal Care & Use Committee (IACUC) at the University of Michigan.
H&E and Verhoeff Van Gieson staining of paraffin or frozen sections of mouse suprarenal abdominal aorta were performed by the In-Vivo Animal Core at the University of Michigan. Elastin degradation grade was calculated as we previously reported.

Compound | protective effect of NO2—OA on oxLDL-induced Il1b and Mmp9 expression [1] | AAA incidence ([2]; 5 mg/kg/day subcutaneous infusion, after 4 weeks, cutoff diameter 1.2 mm) | maximal diameter of the suprarenal aorta region ([2]; 5 mg/kg/day subcutaneous infusion, after 4 weeks, mean±SEM) | ECM degradation / elastin fiber degradation ([2]; 5 mg/kg/day, 4 weeks, VVG staining, grade 1 to 4)
O=C(Nc1ccccc1)c1cc([N+](=O)[O-])ccc1Cl [GW9662, reference compound] | partially blocked | – | – | –
CCCCCCCCC=CCCCCCCCC(=O)O [OA, octadec-9-enoic acid, reference compound] | – | 69.6% | 1.78±0.18 mm | prominent

From patent publication US12728111B2, “Electrophilic compounds and electrophilic prodrugs for treating aneurysm” (University of Pittsburgh—Of the Commonwealth System of …, priority 2020, dated 2026)
